Assay results as given in the supplement of paper PMC6045584.
± gives the standard deviation of the averaged measurements.

Tests used:
MK0752 = compound: O=C(O)CC[C@H]1CC[C@@](c2cc(F)ccc2F)(S(=O)(=O)c2ccc(Cl)cc2)CC1 [MK0752]; experiment: surviving fraction relative to DMSO-only wells; higher = less growth inhibition; conditions: exposure time: 5 days
In short: (§1)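 Log-phase tumour cell lines, 250–500 cells per well in 384-well plates, received inhibitors at 0.5, 1, 5, 10, 50, 100, 500 and 1000 nM continuously for five days, starting 24 hours after seeding. Viability was quantified with CellTiter-Glo luminescence and normalised to the median of DMSO-only wells to give surviving fraction. Three screens were run per line, and a line stayed in only with replicate Pearson r >0.7 and median Z' >0.3.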

[1] = compound: O=C(NOCC1CC1)c1ccc(F)c(F)c1Nc1ccc(I)cc1Cl; experiment: as above; conditions: exposure time: 5 days
In short: as §1

Test System | surviving fraction (MK0752; 0.5 nM) | surviving fraction (MK0752; 1 nM) | surviving fraction (MK0752; 5 nM) | surviving fraction (MK0752; 10 nM) | surviving fraction (MK0752; 50 nM) | surviving fraction (MK0752; 100 nM) | surviving fraction (MK0752; 500 nM) | surviving fraction (MK0752; 1000 nM) | surviving fraction ([1]; 0.5 nM) | surviving fraction ([1]; 1 nM) | surviving fraction ([1]; 5 nM) | surviving fraction ([1]; 10 nM) | surviving fraction ([1]; 50 nM) | surviving fraction ([1]; 100 nM) | surviving fraction ([1]; 500 nM) | surviving fraction ([1]; 1000 nM)
HCC38 BREAST | 1.22 ± 0.34 | 1.15 ± 0.21 | 1.27 ± 0.18 | 1.24 ± 0.044 | 1.21 ± 0.15 | 1.34 ± 0.28 | 1.12 ± 0.03 | 1.1 ± 0.16 | 1.14 ± 0.17 | 1.11 ± 0.19 | 1.01 ± 0.11 | 1.14 ± 0.093 | 0.998 ± 0.2 | 1.03 ± 0.22 | 1.21 ± 0.29 | 1.07 ± 0.14
HCC70 BREAST | 1.1 ± 0.079 | 1.07 ± 0.05 | 1.132 ± 0.01 | 1.08 ± 0.029 | 1.11 ± 0.073 | 1.08 ± 0.13 | 1.03 ± 0.055 | 0.924 ± 0.074 | 0.939 ± 0.029 | 0.963 ± 0.03 | 1.02 ± 0.049 | 0.956 ± 0.058 | 0.818 ± 0.041 | 0.773 ± 0.052 | 0.601 ± 0.022 | 0.528 ± 0.033
HCC78 LUNG | 0.916 ± 0.12 | 0.966 ± 0.16 | 1.08 ± 0.16 | 1.07 ± 0.12 | 1.17 ± 0.062 | 1.06 ± 0.15 | 0.839 ± 0.24 | 0.957 ± 0.17 | 0.787 ± 0.12 | 0.836 ± 0.085 | 0.841 ± 0.11 | 0.832 ± 0.25 | 0.898 ± 0.17 | 0.885 ± 0.15 | 0.486 ± 0.058 | 0.632 ± 0.097
HCC202 BREAST | 1.28 ± 0.66 | 0.775 ± 0.51 | 0.94 ± 0.78 | 1.27 ± 0.18 | 1.23 ± 0.21 | 1.21 ± 0.1 | 1.31 ± 0.069 | 1.39 ± 0.36 | 1.38 ± 0.41 | 1.49 ± 0.64 | 1.47 ± 0.2 | 1.28 ± 0.26 | 1.46 ± 0.16 | 1.31 ± 0.099 | 1.37 ± 0.38 | 1.57 ± 0.043
HCC1395 BREAST | 1.09 ± 0.017 | 0.987 ± 0.16 | 1.08 ± 0.036 | 1.1 ± 0.099 | 1.06 ± 0.011 | 1.06 ± 0.15 | 0.975 ± 0.028 | 0.925 ± 0.12 | 0.997 ± 0.2 | 0.963 ± 0.14 | 0.951 ± 0.17 | 0.958 ± 0.2 | 0.838 ± 0.14 | 0.96 ± 0.052 | 0.86 ± 0.075 | 0.979 ± 0.042
HCC1806 BREAST | 0.974 ± 0.05 | 1.15 ± 0.15 | 1.23 ± 0.1 | 1.21 ± 0.086 | 1.28 ± 0.043 | 1.23 ± 0.14 | 1.19 ± 0.075 | 1.25 ± 0.025 | 1.04 ± 0.026 | 1.01 ± 0.098 | 1.09 ± 0.16 | 1.12 ± 0.079 | 1.1 ± 0.058 | 1.17 ± 0.048 | 0.761 ± 0.094 | 0.671 ± 0.022
HCC1954 BREAST | 0.922 ± 0.069 | 0.747 ± 0.054 | 1.18 ± 0.13 | 1.15 ± 0.15 | 1 ± 0.05 | 0.904 ± 0.02 | 0.741 ± 0.05 | 0.808 ± 0.073 | 0.986 ± 0.081 | 1.13 ± 0.023 | 1.12 ± 0.027 | 1.05 ± 0.066 | 0.8718 ± 0.0032 | 0.805 ± 0.081 | 0.617 ± 0.041 | 0.566 ± 0.067
HCT15 LARGE INTESTINE | 1.1 ± 0.032 | 1.08 ± 0.05 | 1.11 ± 0.032 | 1.09 ± 0.055 | 1.09 ± 0.029 | 1.1 ± 0.024 | 1.09 ± 0.044 | 1.082 ± 0.0067 | 0.526 ± 0.042 | 0.912 ± 0.023 | 0.849 ± 0.05 | 0.936 ± 0.066 | 0.608 ± 0.037 | 0.914 ± 0.039 | 0.784 ± 0.0076 | 0.823 ± 0.05
